Experimental findings from patent publication US12509446B2, “FYN and VEGFR2 kinase inhibitors” (ROTTAPHARM BIOTECH S.R.L., priority 2019, dated 2025) are described below.

In series [1] the test system is rat primary articular chondrocytes. Description: Toxicity analysis (MTT) in rat primary chondrocytes.
Protocol: Purified chondrocytes were resuspended in DMEM glutaMAX 10% and plated in a 96X well plate for toxicity analysis and in a 6X well plate for gene expression analysis.
For toxicity analysis cells were then treated with the different compounds for 24 and 48 h. At the end of the incubation time, the medium was removed and was substituted with a mixture 10:1 of DMEM glutaMAX 10%—MTT (2 mg/ml) for 1 h at 37° C. in the cell incubator. After this incubation, the precipitated salt was dissolved with 100 μl of DMSO and the plate was read at 540 nm. The toxicity analysis were performed to decide the maximal non toxic concentration of each compound used in the gene expression assay.
A short description of series [2]: Pharmacokinetics after administration into the knee joint of rats. Format: in vivo. Particulars: suspension into the knee joint.
The next series concerns IL-1β. Description: Gene expression in rat articular chondrocytes under IL-1β stimulation, IL-1β. Format: cell-based. To be noted: Rattus norvegicus, Chondrocyte; 6 h incubation. The essentials: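 Primary rat chondrocytes were synchronized in DMEM GlutaMAX I 0.4% 10 days after plating, then co-treated with test compounds (top concentration set by toxicity) and cytokine at 2 ng/ml. TaqMan RT-qPCR relative to 18S was read at 6 h for IL-1β and ADAMTS-5 and at 24 h for MMP3 and MMP13.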

The subject of the next series is COX2. Kind of series: Gene expression in rat articular chondrocytes under IL-1β stimulation, COX2. The class given is cell-based. Particulars: Rattus norvegicus, Chondrocyte; 24 h incubation.
For a further series, the target named is AMPKa. Kind of series: Kinase selectivity (Eurofins Cerep), AMPKa. Format: biochemical, human. Particulars: maximal concentration tested 10 μM. Here is the method: (§1) The assays were performed in Eurofins Cerep (France). The concentration range of the compound under investigation was from 10^−9 M up to 10^−5 M final concentration.
The next series has as its system CFA induced hyperalgesia. Kind of series: Complete Freund Adjuvant (CFA)-induced inflammatory pain in rats. The class given is in vivo, rat. Particulars: intra-dermal.
A further series concerns the target Src (Homo sapiens (Human), UniProt P12931). To be noted: read-out: KINASE SELECTIVITY IC50 Src. As to the method: as §1
The next series addresses Jak3 (Homo sapiens (Human), UniProt P52333). Particulars: read-out: KINASE SELECTIVITY IC50 Jak3. Here is the method:
as §1

Another series addresses Lyn-A (Homo sapiens (Human), UniProt P07948). Particulars: read-out: KINASE SELECTIVITY IC50 Lyn-A. As to the method:
as §1

Another series has as its target Yes (Homo sapiens (Human), UniProt P07947). To be noted: read-out: KINASE SELECTIVITY IC50 Yes. As to the method: as §1
Another series deals with FGFR2 (Homo sapiens (Human), UniProt P21802). Particulars: read-out: KINASE SELECTIVITY IC50 FGFR2. Here is the method: as §1
Chain of FGFR2 (P21802 22-821): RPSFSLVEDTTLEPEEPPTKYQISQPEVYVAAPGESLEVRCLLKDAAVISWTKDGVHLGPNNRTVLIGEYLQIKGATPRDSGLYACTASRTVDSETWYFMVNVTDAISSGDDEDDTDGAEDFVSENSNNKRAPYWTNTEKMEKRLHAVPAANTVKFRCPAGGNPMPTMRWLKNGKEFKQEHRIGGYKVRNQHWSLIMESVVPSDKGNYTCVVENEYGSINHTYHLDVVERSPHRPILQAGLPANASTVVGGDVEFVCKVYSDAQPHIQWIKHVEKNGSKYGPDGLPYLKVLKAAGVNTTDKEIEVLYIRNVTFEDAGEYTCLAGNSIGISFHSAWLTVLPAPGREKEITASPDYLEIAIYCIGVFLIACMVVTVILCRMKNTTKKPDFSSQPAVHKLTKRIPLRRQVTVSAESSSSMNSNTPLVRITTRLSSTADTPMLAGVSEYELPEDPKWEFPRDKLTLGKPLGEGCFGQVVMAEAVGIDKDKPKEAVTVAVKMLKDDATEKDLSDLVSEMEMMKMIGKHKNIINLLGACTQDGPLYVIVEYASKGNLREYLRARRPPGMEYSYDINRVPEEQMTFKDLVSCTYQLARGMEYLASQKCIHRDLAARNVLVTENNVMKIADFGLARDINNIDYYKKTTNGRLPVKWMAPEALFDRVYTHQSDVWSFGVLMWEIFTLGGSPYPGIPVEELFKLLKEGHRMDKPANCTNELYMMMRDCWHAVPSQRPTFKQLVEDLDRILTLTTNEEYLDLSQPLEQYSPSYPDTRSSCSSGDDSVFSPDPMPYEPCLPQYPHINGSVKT
For series [3], the system named is bovine nasal septum cartilage. Description: Inhibition of cartilage degradation (GAG release) induced by IL-1α in a bovine in vitro model. The class given is cell-based. The essentials: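 Cartilage punches (2 mm) from an 8-month-old male bovine nasal septum were cultured 48 h, then stimulated 48 h with IL-1α […] ± compound in DMEM + 0.1% BSA. Compound doses were set from 48 h rat chondrocyte toxicity. GAG in medium and papain-digested tissue was measured by DMB absorbance at 590 nm; degradation = medium GAG/total GAG × 100.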

Another series concerns the target AurA (Homo sapiens (Human), UniProt O14965). Description: Kinase selectivity (Eurofins Cerep), AurA. The class given is biochemical. To be noted: maximal concentration tested 10 μM. As to the method: as §1
A further series concerns the target CDK2 (Homo sapiens (Human), UniProt P24941). Kind of series: Kinase selectivity (Eurofins Cerep), CDK2. Format: biochemical. Particulars: maximal concentration tested 10 μM. Here is the method: as §1

Chain of Src (P12931 whole entry, looked up): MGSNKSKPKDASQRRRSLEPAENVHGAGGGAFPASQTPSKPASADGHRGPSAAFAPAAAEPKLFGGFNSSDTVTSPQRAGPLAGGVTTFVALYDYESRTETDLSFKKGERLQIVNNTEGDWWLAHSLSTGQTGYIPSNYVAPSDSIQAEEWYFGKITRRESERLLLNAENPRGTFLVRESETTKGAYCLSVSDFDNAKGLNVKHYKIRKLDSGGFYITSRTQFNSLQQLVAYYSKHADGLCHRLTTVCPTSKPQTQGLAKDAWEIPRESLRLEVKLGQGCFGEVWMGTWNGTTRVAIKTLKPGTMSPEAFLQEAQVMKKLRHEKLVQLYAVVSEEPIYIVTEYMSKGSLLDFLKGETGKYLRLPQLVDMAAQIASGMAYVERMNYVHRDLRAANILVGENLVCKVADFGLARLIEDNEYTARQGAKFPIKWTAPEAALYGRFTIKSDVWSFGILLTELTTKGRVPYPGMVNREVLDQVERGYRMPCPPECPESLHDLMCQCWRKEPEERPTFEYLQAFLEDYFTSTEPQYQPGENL
Chain of Jak3 (P52333 whole entry): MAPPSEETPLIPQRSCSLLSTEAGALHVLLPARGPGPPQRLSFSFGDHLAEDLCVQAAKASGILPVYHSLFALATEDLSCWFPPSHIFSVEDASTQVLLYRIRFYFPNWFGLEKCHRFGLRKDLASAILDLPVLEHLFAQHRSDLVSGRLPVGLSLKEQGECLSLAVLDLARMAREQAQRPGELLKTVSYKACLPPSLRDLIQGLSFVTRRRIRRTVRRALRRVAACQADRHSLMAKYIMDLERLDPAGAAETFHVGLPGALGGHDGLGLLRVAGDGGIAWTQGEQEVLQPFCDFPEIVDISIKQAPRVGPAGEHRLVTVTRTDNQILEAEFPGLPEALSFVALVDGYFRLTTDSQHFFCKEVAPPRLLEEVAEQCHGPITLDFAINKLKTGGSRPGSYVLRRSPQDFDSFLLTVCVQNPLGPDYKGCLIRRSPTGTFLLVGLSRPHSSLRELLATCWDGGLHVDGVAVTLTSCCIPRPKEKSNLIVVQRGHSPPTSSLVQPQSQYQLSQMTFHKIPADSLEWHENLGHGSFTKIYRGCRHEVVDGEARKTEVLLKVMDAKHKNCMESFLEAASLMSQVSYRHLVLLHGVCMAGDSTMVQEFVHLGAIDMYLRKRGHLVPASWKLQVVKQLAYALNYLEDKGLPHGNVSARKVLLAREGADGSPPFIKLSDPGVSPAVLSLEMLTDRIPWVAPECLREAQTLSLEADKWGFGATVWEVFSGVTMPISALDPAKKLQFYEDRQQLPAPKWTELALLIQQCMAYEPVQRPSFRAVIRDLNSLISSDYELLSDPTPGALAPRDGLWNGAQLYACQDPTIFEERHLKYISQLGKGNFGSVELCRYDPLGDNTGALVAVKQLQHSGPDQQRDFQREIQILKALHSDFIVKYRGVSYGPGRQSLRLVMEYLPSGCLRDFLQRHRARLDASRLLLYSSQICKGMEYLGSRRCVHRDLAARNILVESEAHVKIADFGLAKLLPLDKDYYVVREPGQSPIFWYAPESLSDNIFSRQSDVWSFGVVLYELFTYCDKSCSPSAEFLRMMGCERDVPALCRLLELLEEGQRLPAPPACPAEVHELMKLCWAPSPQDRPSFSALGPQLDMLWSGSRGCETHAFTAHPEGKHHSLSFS
Chain of Lyn-A (P07948 whole entry): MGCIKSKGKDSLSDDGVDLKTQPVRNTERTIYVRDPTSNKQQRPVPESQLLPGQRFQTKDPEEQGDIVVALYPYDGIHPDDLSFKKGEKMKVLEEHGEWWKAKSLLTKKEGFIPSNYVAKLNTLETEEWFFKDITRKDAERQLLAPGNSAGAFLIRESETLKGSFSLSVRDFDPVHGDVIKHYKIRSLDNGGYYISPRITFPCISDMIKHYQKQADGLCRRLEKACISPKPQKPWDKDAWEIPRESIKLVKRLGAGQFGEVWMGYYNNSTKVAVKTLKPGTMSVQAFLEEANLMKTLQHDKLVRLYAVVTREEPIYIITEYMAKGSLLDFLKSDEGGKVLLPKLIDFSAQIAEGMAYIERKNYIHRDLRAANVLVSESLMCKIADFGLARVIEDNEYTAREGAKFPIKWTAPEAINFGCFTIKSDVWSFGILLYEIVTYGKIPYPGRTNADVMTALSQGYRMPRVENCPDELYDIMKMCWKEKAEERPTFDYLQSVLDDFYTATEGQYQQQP
Chain of AurA (O14965 whole entry): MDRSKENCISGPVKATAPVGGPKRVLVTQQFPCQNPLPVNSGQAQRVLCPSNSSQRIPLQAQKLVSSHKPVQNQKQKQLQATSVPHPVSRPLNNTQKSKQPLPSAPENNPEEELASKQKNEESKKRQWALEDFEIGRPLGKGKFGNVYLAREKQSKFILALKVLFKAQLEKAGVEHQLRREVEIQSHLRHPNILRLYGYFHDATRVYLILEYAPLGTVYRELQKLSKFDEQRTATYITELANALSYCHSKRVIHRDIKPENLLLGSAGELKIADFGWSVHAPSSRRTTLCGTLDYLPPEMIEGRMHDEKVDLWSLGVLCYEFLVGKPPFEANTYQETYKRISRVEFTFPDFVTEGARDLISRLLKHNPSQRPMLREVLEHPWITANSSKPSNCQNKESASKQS
Chain of Yes (P07947 whole entry): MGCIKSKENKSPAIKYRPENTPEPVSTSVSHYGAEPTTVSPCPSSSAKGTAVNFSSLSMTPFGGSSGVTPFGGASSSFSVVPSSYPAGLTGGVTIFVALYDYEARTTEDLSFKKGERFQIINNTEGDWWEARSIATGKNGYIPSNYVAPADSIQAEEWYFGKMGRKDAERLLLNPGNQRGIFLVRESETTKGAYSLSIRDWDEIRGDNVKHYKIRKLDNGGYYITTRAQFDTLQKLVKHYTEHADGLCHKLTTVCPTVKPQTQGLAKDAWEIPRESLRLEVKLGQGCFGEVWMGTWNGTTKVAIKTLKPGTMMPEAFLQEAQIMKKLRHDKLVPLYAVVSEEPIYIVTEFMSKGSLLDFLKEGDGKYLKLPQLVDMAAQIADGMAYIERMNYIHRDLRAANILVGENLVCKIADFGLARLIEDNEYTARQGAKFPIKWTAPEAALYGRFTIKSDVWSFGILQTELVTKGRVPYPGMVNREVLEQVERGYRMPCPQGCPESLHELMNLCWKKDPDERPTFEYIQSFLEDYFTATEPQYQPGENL

A word on the IC50: it is the concentration that gives 50% inhibition. For `Cc1ccc(NC(=O)c2cccc(C(F)(F)F)c2)cc1CCc1cc(Nc2cnccn2)[nH]n1` [Compound 3, N-(4-methyl-3-(2-(5-(pyrazin-2-ylamino)-1H-pyrazol-3-yl)ethyl)phenyl)-3-(trifluoromethyl)benzamide], the “First toxic concentration at 48 h in rat primary chondrocytes” value in series [1] (48 h) is 3 µM. Further, the “First toxic concentration at 24 h” value in series [1] (rat primary chondrocytes, 24 h) is 10 µM. Further, the “Permanence in the synovial fluid and articular tissues (cartilage and synovial fat)” value in [2] was “at least 14 days”. Besides, the IC50 in the series on IL-1β is 0.002 µM; with COX2 it was 0.187 µM; at AMPKa, above 10 µM; at Src, 0.37 µM; at Jak3, 1.76 µM; at Lyn-A, 0.059 µM. Further, the IC50 on Yes is 0.017 µM; at FGFR2, 3 µM; at AurA it was above 10 µM; against CDK2, above 10 µM. In the series on CFA induced hyperalgesia (3 μM (140 ng/paw), no CFA challenge), the “Effect on normal nociception in naïve animals” value is “did not modify the normal nociception”. Besides, in the series on CFA induced hyperalgesia (maximal concentration of 3 μM (140 ng/paw)), the “Effect on pain behavior in CFA inflamed animals (mechanical pain threshold)” value is recorded as “completely reverted the pain behavior”. The inhibition at 1 µM in series [3] (Bos taurus, 1 μM, read-out: Bovine cartilage degradation induced by IL-1α, % inhibitory effect at max concentration) is 100%. Also, the “Inhibitory effect on the GAG release” value in series [3] (at max concentration) is given as 95-100%.
